Assay results: the supplement of paper PMC8967900

What was measured:
Test in all cases: selective drug sensitivity score (sDSS, relative to normal bone marrow) (sDSS (score)); higher = more potent and effective on the cell line relative to normal bone marrow cells
Conditions in all cases: 72 h
[1] = tested on: 380
[2] = tested on: 697
[3] = tested on: ALL-SIL
[4] = tested on: CCRF-HSB2
[5] = tested on: COG-LL-317
[6] = tested on: COG-LL-332h
[7] = tested on: COG-LL-355h
[8] = tested on: COG-LL-402h
[9] = tested on: HPB-ALL
[10] = tested on: JURKAT
[11] = tested on: KARPAS-45
[12] = tested on: KASUMI-9
[13] = tested on: KOPN-8
[14] = tested on: MHH-CALL-4
[15] = tested on: NALL-1
[16] = tested on: PEER
[17] = tested on: RCH-ACV
[18] = tested on: SUP-B15
[19] = tested on: TANOUE
[20] = tested on: TMD5
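Also: ALL cell lines in 384-well plates, five doses spanning 10,000-fold, each plate scaled between vehicle and 100 µmol/L benzalkonium chloride controls, sDSS an adapted area-under-curve metric.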

Structure (SMILES)	selective drug sensitivity score [1]	selective drug sensitivity score [2]	selective drug sensitivity score [3]	selective drug sensitivity score [4]	selective drug sensitivity score [5]	selective drug sensitivity score [6]	selective drug sensitivity score [7]	selective drug sensitivity score [8]	selective drug sensitivity score [9]	selective drug sensitivity score [10]	selective drug sensitivity score [11]	selective drug sensitivity score [12]	selective drug sensitivity score [13]	selective drug sensitivity score [14]	selective drug sensitivity score [15]	selective drug sensitivity score [16]	selective drug sensitivity score [17]	selective drug sensitivity score [18]	selective drug sensitivity score [19]	selective drug sensitivity score [20]
COc1cc2nccc(Oc3ccc(NC(=O)C4(C(=O)Nc5ccc(F)cc5)CC4)cc3)c2cc1OC [Cabozantinib] (top concentration 1000 nM)	-3.62	-1.42	4.48	1.98	-3.62	-0.12	2.18	-3.62	-3.02	-3.62	-2.42	-3.62	24.9	3.78	-3.62	2.08	-3.62	13.5	-3.62	-3.62
CCCCCOC(=O)Nc1nc(=O)n([C@@H]2O[C@H](C)[C@@H](O)[C@H]2O)cc1F [Capecitabine] (top concentration 10000 nM)	-0.06	-0.06	-0.06	-0.06	-0.06	-0.06	-0.06	-0.06	0.64	-0.06	-0.06	-0.06	-0.06	0.04	-0.06	-0.06	-0.06	-0.06	-0.06	-0.06
Nc1nc(Cl)nc2c1ncn2[C@H]1C[C@H](O)[C@@H](CO)O1 [Cladribine] (top concentration 1000 nM)	7.56	10.5	9.36	-0.04	1.06	3.26	0.16	3.66	-9.34	-10.7	-15.7	7.76	9.66	4.06	1.86	-12.2	5.76	9.36	-16	-16
CCN(CC)CCOc1ccc(/C(=C(/Cl)c2ccccc2)c2ccccc2)cc1 [Clomifene] (top concentration 10000 nM)	1.42	0.92	0.12	1.52	0.22	0.42	0.52	-0.88	-0.78	-1.28	1.22	1.72	8.92	2.72	1.22	1.02	3.22	0.12	-2.98	1.32
CO[C@@H](C(=O)N1Cc2[nH]nc(NC(=O)c3ccc(N4CCN(C)CC4)cc3)c2C1)c1ccccc1 [Danusertib] (top concentration 10000 nM)	22.4	21.4	22.8	19.8	19.4	17.2	3.04	11.5	5.54	-0.96	8.94	15.5	19	7.14	13.5	21.6	17.9	18.6	-9.16	14.5
CC[C@@](C)(Nc1ccnc(-c2c[nH]c3ncccc23)n1)C(=O)NCC(F)(F)F [Decernotinib] (top concentration 10000 nM)	2.56	-1.54	-2.44	1.16	-3.94	-3.34	-3.94	-3.94	-3.94	-3.94	-3.94	-3.74	-3.94	-3.94	-3.94	-3.84	-3.14	-3.94	-3.94	-1.74
CN1CCN(c2ccc3nc(-c4c(N)c5c(F)cccc5[nH]c4=O)[nH]c3c2)CC1 [Dovitinib] (top concentration 10000 nM)	-0.14	1.56	-0.14	1.86	-0.04	0.36	3.66	2.96	-0.14	-0.14	0.26	0.56	-0.14	-0.14	-0.14	0.66	0.46	0.26	-0.14	-0.14
CC(C)(O)CNc1nc(Nc2ccnc(C(F)(F)F)c2)nc(-c2cccc(C(F)(F)F)n2)n1 [Enasidenib] (top concentration 10000 nM)	-0.8	-0.2	1.8	-0.1	0.8	-0.5	-0.6	-0.7	-0.5	-0.7	4.1	-0.8	1.2	-0.8	-0.8	0.6	2.2	-0.3	-0.8	-0.8
CN1CCN(c2ccc(C(=O)Nc3n[nH]c4ccc(Cc5cc(F)cc(F)c5)cc34)c(NC3CCOCC3)c2)CC1 [Entrectinib] (top concentration 1000 nM)	-1.2	-1.2	-0.6	0.9	-0.7	-0.5	1.5	-0.7	-1.2	-1.2	-0.9	-1.1	0.1	0.4	-0.3	0.9	-1.2	-0.7	-1.2	-0.5
